Assay results taken from BindingDB's records for doi:10.1021/bi0200514 (Merck Research Laboratories, 2002).
Where “and” joins values, the source holds several entries; their conditions need not be identical. Equal entries are not always repeated. Positions of bridges follow the written chain, without caps; N, C: chain ends. Non-standard residues stand in square brackets, D forms with d. Residues, ends and D or L forms follow the SMILES beside them. *: point of attachment. Pentanoyl(5-guanidino) = NC(N)=NCCCCC(=O)*; Abu = CC[C@H](N)C(=O)O; Aoc = NCCCCCCCC(=O)O; Ava = NCCCCC(=O)O

What was measured:
[1] = target: Melanin-concentrating hormone receptor 1 (Homo sapiens, UniProt Q99705)
[2] = target: Melanin-concentrating hormone receptor 2 (Homo sapiens, UniProt Q969V1)
Melanin-concentrating hormone receptor 2, sequence (Q969V1 whole entry): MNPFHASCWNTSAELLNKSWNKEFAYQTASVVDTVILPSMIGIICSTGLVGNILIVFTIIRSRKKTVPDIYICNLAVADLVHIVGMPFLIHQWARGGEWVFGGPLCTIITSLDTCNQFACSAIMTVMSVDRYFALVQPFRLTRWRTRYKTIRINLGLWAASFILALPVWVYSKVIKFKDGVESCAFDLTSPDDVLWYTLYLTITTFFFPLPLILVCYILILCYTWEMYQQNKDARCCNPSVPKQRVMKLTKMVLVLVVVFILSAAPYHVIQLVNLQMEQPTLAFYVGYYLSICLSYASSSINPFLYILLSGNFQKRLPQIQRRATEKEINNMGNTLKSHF

Melanin-concentrating hormone receptor 1, sequence (Q99705 as listed by the source): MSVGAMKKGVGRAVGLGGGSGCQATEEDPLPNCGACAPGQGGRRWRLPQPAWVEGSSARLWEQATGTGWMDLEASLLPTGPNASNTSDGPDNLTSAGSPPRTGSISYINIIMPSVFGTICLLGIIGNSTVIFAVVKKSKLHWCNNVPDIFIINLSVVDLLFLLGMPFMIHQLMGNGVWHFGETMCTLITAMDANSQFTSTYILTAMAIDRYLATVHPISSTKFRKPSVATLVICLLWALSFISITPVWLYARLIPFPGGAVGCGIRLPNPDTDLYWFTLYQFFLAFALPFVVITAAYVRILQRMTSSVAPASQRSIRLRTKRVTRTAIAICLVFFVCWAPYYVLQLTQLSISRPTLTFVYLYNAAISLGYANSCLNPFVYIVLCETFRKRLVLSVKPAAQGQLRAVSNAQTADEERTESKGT

Structure (SMILES) | Ki [1] | Ki [2]
CSCC[C@@H]1NC(=O)[C@@H](NC(=O)[C@H](CCN=C(N)N)NC(C)=O)CSSC[C@@H](C(N)=O)NC(=O)CCCCNC(=O)[C@H](Cc2ccc(O)cc2)NC(=O)[C@H](C(C)C)NC(=O)[C@H](CCCN=C(N)N)NC(=O)CNC(=O)[C@H](CC(C)C)NC1=O [Gpr6,Ava14,15] | 43 nM | 43 nM
CSCC[C@@H]1NC(=O)[C@@H](NC(=O)CCCCN=C(N)N)CSSC[C@@H](C(=O)O)NC(=O)CCCCNC(=O)[C@H](Cc2ccc(O)cc2)NC(=O)[C@H](C(C)C)NC(=O)[C@H](CCCN=C(N)N)NC(=O)CNC(=O)[C@H](CC(C)C)NC1=O [Gva6,Ava14,15, OH] | 66 nM | 38 nM
CSCC[C@@H]1NC(=O)[C@@H](N)CSSC[C@@H](C(N)=O)NC(=O)CCCCNC(=O)[C@H](Cc2ccc(O)cc2)NC(=O)[C@H](C(C)C)NC(=O)[C@H](CCCN=C(N)N)NC(=O)CNC(=O)[C@H](CC(C)C)NC1=O [des(Ac-Arg6),Ava14,15] | 300 nM and 190 nM | 77 nM and 48 nM
CSCC[C@@H]1NC(=O)[C@@H](NC(=O)[C@H](CCCN=C(N)N)NC(C)=O)CSSC[C@@H](C(N)=O)NC(=O)CCCCNC(=O)[C@H](Cc2ccc(O)cc2)NC(=O)[C@H](C(C)C)NC(=O)[C@H](CCCN=C(N)N)NC(=O)CNC(=O)[C@H](CC(C)C)NC1=O [Ava14,15] | 1.8 nM | 50 nM
CCCC[C@@H]1NC(=O)[C@@H](NC(=O)CCCCN=C(N)N)CSSC[C@@H](C(N)=O)NC(=O)CCCCNC(=O)[C@H](Cc2ccc(O)cc2)NC(=O)[C@H](C(C)C)NC(=O)[C@H](CCCN=C(N)N)NC(=O)CNC(=O)[C@H](CC(C)C)NC1=O [Gva6,Nle8,Ava14,15] | 4.7 nM | 70 nM
CSCC[C@@H]1NC(=O)[C@@H](NC(=O)CCCCN=C(N)N)CSSC[C@@H](C(N)=O)NC(=O)CCCNC(=O)[C@H](Cc2ccc(O)cc2)NC(=O)[C@H](C(C)C)NC(=O)[C@H](CCCN=C(N)N)NC(=O)CNC(=O)[C@H](CC(C)C)NC1=O [Gva6,gammaAbu14,15] | 24 nM | 48 nM
CSCC[C@@H]1NC(=O)[C@@H](NC(=O)CCCCN=C(N)N)CSSC[C@@H](C(N)=O)NC(=O)[C@@H]2CCCN2C(=O)[C@H](CCCN=C(N)N)NC(=O)[C@H](Cc2ccc(O)cc2)NC(=O)[C@H](C(C)C)NC(=O)[C@H](CCCN=C(N)N)NC(=O)CCCCNC1=O [Gva6,Ava9,10] | 5 nM | 48 nM
CSCC[C@@H]1NC(=O)[C@@H](NC(=O)[C@H](CCCNC(=N)N)NC(=O)[C@H](CC(C)C)NC(=O)[C@H](CCSC)NC(=O)[C@H](CC(=O)O)NC(=O)[C@H](Cc2ccccc2)NC(=O)[C@@H](N)CC(=O)O)CSSC[C@@H](C(=O)N[C@@H](Cc2c[nH]c3ccccc23)C(=O)N[C@@H](CCC(N)=O)C(=O)N[C@H](C(=O)O)C(C)C)NC(=O)[C@@H]2CCCN2C(=O)[C@H](CCCNC(=N)N)NC(=O)[C@H](Cc2ccc(O)cc2)NC(=O)[C@H](C(C)C)NC(=O)[C@H](CCCNC(=N)N)NC(=O)CNC(=O)[C@H](CC(C)C)NC1=O [hMCH] | – | 2.9 nM
CSCC[C@@H]1NC(=O)[C@@H](NC(=O)CCCN=C(N)N)CSSC[C@@H](C(N)=O)NC(=O)CCCCNC(=O)[C@H](Cc2ccc(O)cc2)NC(=O)[C@H](C(C)C)NC(=O)[C@H](CCCN=C(N)N)NC(=O)CNC(=O)[C@H](CC(C)C)NC1=O [Gbu6,Ava14,15] | 7.9 nM | 45 nM
CSCC[C@@H]1NC(=O)[C@@H](NC(=O)CCCCN=C(N)N)CSSC[C@@H](C(N)=O)NC(=O)[C@H]2CC[C@H](CC2)NC(=O)[C@H](Cc2ccc(O)cc2)NC(=O)[C@H](C(C)C)NC(=O)[C@H](CCCN=C(N)N)NC(=O)CNC(=O)[C@H](CC(C)C)NC1=O [Gva6,cisAcx14,15] | 10 nM | 3100 nM
CSCC[C@@H]1NC(=O)[C@@H](NC(=O)CCCCN=C(N)N)CSSC[C@@H](C(N)=O)NC(=O)CCCCNC(=O)[C@H](Cc2ccc(O)cc2)NC(=O)[C@H](C(C)C)NC(=O)[C@H](CCCN=C(N)N)NC(=O)CCCCNC1=O [Gva6,Ava9,10,Ava14,15] ({Pentanoyl(5-guanidino)}-CM[Ava]RVY[Ava]C-NH2; disulfide 1-8) | 45 nM | 40 nM
CC[C@@H]1NC(=O)[C@@H](NC(=O)CCCCN=C(N)N)CSSC[C@@H](C(N)=O)NC(=O)CCCCNC(=O)[C@H](Cc2ccc(O)cc2)NC(=O)[C@H](C(C)C)NC(=O)[C@H](CCCN=C(N)N)NC(=O)CNC(=O)[C@H](CC(C)C)NC1=O [Gva6,alphaAbu8,Ava14,15] ({Pentanoyl(5-guanidino)}-C[Abu]LGRVY[Ava]C-NH2; disulfide 1-9) | 320 nM | 43 nM
CSCC[C@@H]1NC(=O)[C@@H](NC(=O)[C@@H](CCCN=C(N)N)NC(C)=O)CSSC[C@@H](C(N)=O)NC(=O)CCCCNC(=O)[C@H](Cc2ccc(O)cc2)NC(=O)[C@H](C(C)C)NC(=O)[C@H](CCCN=C(N)N)NC(=O)CNC(=O)[C@H](CC(C)C)NC1=O [D-Arg6,Ava14,15] | 11.3 nM | 65 nM
CSCC[C@@H]1NC(=O)[C@@H](NC(=O)[C@@H](CCCN=C(N)N)NC(C)=O)CSSC[C@@H](C(N)=O)NC(=O)CCCCNC(=O)[C@H](Cc2ccc(O)cc2)NC(=O)[C@H](C(C)C)NC(=O)[C@H](CCCN=C(N)N)NC(=O)CCCCNC1=O [D-Arg6,Ava9,10,Ava14,15] | 69 nM | 45 nM
CC(=O)N[C@@H](CCCN=C(N)N)C(=O)N[C@H]1CSSC[C@@H](C(N)=O)NC(=O)[C@@H]2CCCN2C(=O)[C@H](CCCN=C(N)N)NC(=O)[C@H](Cc2ccc(O)cc2)NC(=O)[C@H](C(C)C)NC(=O)[C@H](CCCN=C(N)N)NC(=O)CCCCCCCNC1=O [Aoct8,9,10] (Ac-RC[Aoc]RVYRPC-NH2; disulfide 2-9) | 4800 nM | 63 nM

The remaining molecules from weak to strong by Ki [2], led by results:

Ki [1] | Ki [2] | Structure (SMILES)
– | 38 nM | CC(=O)N[C@@H](CCCN=C(N)N)C(=O)N[C@H]1CSSC[C@@H](C(N)=O)NC(=O)CCCCNC(=O)[C@H](Cc2ccc(O)cc2)NC(=O)[C@H](C(C)C)NC(=O)[C@H](CCCN=C(N)N)NC(=O)CNC(=O)[C@H](CC(C)C)NC(=O)[C@H](C)NC1=O [Ala8,Ava14,15] (Ac-RCALGRVY[Ava]C-NH2; disulfide 2-10)
25 nM | 35 nM | CSCC[C@@H]1NC(=O)[C@@H](NC(=O)CCCCN=C(N)N)CSSC[C@@H](C(N)=O)NC(=O)CCCCNC(=O)[C@H](Cc2ccc(O)cc2)NC(=O)[C@H](C)NC(=O)[C@H](CCCN=C(N)N)NC(=O)CNC(=O)[C@H](CC(C)C)NC1=O [Gva6,Ala12,Ava14,15] ({Pentanoyl(5-guanidino)}-CMLGRAY[Ava]C-NH2; disulfide 1-9)
83 nM | 33 nM | CC(C)C[C@@H]1NC(=O)[C@H](C)NC(=O)[C@@H](NC(=O)CCCCN=C(N)N)CSSC[C@@H](C(N)=O)NC(=O)CCCCNC(=O)[C@H](Cc2ccc(O)cc2)NC(=O)[C@H](C(C)C)NC(=O)[C@H](CCCN=C(N)N)NC(=O)CNC1=O [Gva6,Ala8,Ava14,15] ({Pentanoyl(5-guanidino)}-CALGRVY[Ava]C-NH2; disulfide 1-9)
120 nM | 25 nM | CSCC[C@@H]1NC(=O)[C@H](NC(=O)CCCCN=C(N)N)CSSC[C@@H](C(N)=O)NC(=O)CCCCNC(=O)[C@H](Cc2ccc(O)cc2)NC(=O)[C@H](C(C)C)NC(=O)[C@H](CCCN=C(N)N)NC(=O)CNC(=O)[C@H](CC(C)C)NC1=O [Gva6,D-Cys7,Ava14,15]
1350 nM | 20 nM | CSCC[C@@H]1NC(=O)[C@@H](NC(=O)CCCCN=C(N)N)CSSC[C@@H](C(N)=O)NC(=O)CCCCNC(=O)[C@H](Cc2ccc(O)cc2)NC(=O)[C@H](C(C)C)NC(=O)[C@H](CCCN=C(N)N)NC(=O)CNC1=O [Gva6,desLeu9,Ava14,15] ({Pentanoyl(5-guanidino)}-CMGRVY[Ava]C-NH2; disulfide 1-8)
340 nM | 20 nM | CSCC[C@@H]1NC(=O)[C@H](NC(=O)[C@H](CCCN=C(N)N)NC(C)=O)CSSC[C@@H](C(N)=O)NC(=O)CCCCNC(=O)[C@H](Cc2ccc(O)cc2)NC(=O)[C@H](C(C)C)NC(=O)[C@H](CCCN=C(N)N)NC(=O)CNC(=O)[C@H](CC(C)C)NC1=O [D-Cys7,Ava14,15]
0.16 nM | 2.7 nM | CSCC[C@@H]1NC(=O)[C@@H](NC(=O)[C@H](CCCNC(=N)N)NC(C)=O)CSSC[C@@H](C(N)=O)NC(=O)[C@@H]2CCCN2C(=O)[C@H](CCCNC(=N)N)NC(=O)[C@H](Cc2ccc(O)cc2)NC(=O)[C@H](C(C)C)NC(=O)[C@H](CCCNC(=N)N)NC(=O)CNC(=O)[C@H](CC(C)C)NC1=O [hAc-MCH(6-16)-NH2]
